Results as given in patent publication US6355799B1, “Substituted benzene compounds, process for their preparation, and herbicidal and defoliant compositions containing them” (ISK Americas Incorporated, priority 1997, dated 2002).

Experiments:
Type in all cases: in vivo
[1] = test system: ivyleaf morningglory (Ipomoea hederacea, IPOHE); experiment: Pre-emerge test, greenhouse herbicide activity screening; settings: Ipomoea, pre-emergence, 336 h, phytotoxicity rating 0-100, 14 days after application, read-out: Pre-emerge Herbicidal Activity IPOHE
In short: (§1)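 Applied at 15–1000 g ai/ha from acetone in 187 l/ha spray volume. Post-emergence applications included 0.25% v/v non-ionic surfactant and reached plants sown 8–21 days before. Pre-emergence applications were incorporated by surface watering. Efficacy or crop damage was rated on a 0–100 scale after 14 days.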

[2] = test system: large crabgrass (Digitaria sanguinalis, DIGSA); experiment: as above; settings: Digitaria sanguinalis, pre-emergence, 336 h, phytotoxicity rating 0-100, 14 days after application, read-out: Pre-emerge Herbicidal Activity DIGSA
In short: as §1

[3] = test system: velvetleaf (Abutilon theophrasti, ABUTH); experiment: as above; settings: Abutilon theophrasti, pre-emergence, 336 h, phytotoxicity rating 0-100, 14 days after application, read-out: Pre-emerge Herbicidal Activity ABUTH
In short: as §1

[4] = test system: johnsongrass (Sorghum halepense, SORHA); experiment: as above; settings: Sorghum halepense, pre-emergence, 336 h, phytotoxicity rating 0-100, 14 days after application, read-out: Pre-emerge Herbicidal Activity SORHA
In short: as §1

[5] = test system: barnyardgrass (Echinochloa crus-galli, ECHCG); experiment: as above; settings: Echinochloa crus-galli, pre-emergence, 336 h, phytotoxicity rating 0-100, 14 days after application, read-out: Pre-emerge Herbicidal Activity ECHCG
In short: as §1

[6] = test system: lambsquarters (Chenopodium album, CHEAL); experiment: as above; settings: Chenopodium album, pre-emergence, 336 h, phytotoxicity rating 0-100, 14 days after application, read-out: Pre-emerge Herbicidal Activity CHEAL
In short: as §1

[7] = test system: green foxtail (Setaria viridis, SETVI); experiment: as above; settings: Setaria viridis, pre-emergence, 336 h, phytotoxicity rating 0-100, 14 days after application, read-out: Pre-emerge Herbicidal Activity SETVI
In short: as §1

[8] = test system: sicklepod (Cassia obtusifolia, CASOB); experiment: as above; settings: Senna obtusifolia, pre-emergence, 336 h, phytotoxicity rating 0-100, 14 days after application, read-out: Pre-emerge Herbicidal Activity CASOB
In short: as §1

[9] = test system: large crabgrass (Digitaria sanguinalis, DIGSA); experiment: Post-emerge test, greenhouse herbicide activity screening; settings: post-emerge, 14 days after application, rating scale 0-100
In short: (§2)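 Compounds in acetone were track-sprayed at 15-1000 g ai/ha (187 l/ha) on sandy loam pots: pre-emerge one day after seeding, post-emerge at 2-3 leaf stage with 0.25% v/v non-ionic surfactant. Phytotoxicity was rated 14 days later on a 0 (no damage) to 100 (complete death) scale.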

[10] = test system: johnsongrass (Sorghum halepense, SORHA); experiment: as above; settings: post-emerge, 14 days after application, rating scale 0-100
In short: as §2

[11] = test system: lambsquarters (Chenopodium album, CHEAL); experiment: as above; settings: post-emerge, 14 days after application, rating scale 0-100
In short: as §2

[12] = test system: green foxtail (Setaria viridis, SETVI); experiment: as above; settings: post-emerge, 14 days after application, rating scale 0-100
In short: as §2

[13] = test system: sicklepod (Cassia obtusifolia, CASOB); experiment: as above; settings: post-emerge, 14 days after application, rating scale 0-100
In short: as §2

[14] = test system: redroot pigweed (Amaranthus retroflexus, AMARE); experiment: Pre-emerge test, greenhouse herbicide activity screening; settings: Amaranthus retroflexus, pre-emergence, 336 h, phytotoxicity rating 0-100, 14 days after application, read-out: Pre-emerge Herbicidal Activity AMARE
In short: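 Herbicidal damage is scored 0 (none) to 100 (complete plant death) two weeks after a simulated field spray. Rates span 15–1000 g ai/ha, delivered in acetone at 187 l/ha. For post-emergence treatments, plants have 2–3 leaves and the spray carries 0.25% v/v non-ionic surfactant.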

**Q.** Which pest or weed control at 63 g/ha ([1]; 63 g ai/ha) does the source give for `COC(=O)Nc1c(OC)c(Cl)cc(F)c1-n1c(=O)cc(C(F)(F)F)n(C)c1=O` [Compound 4-1, 3-(4chloro-6-fluoro-3-methoxy-2-methoxycarbonylaminophenyl)-1-methyl-6-trifluoromethyl-2,4(1H, 3H)-pyrimidinedione] here?
**A.** 100%

**Q.** What about the pest or weed control at 250 g/ha ([1]; 250 g ai/ha) of the same compound?
**A.** 100%

**Q.** And the pest or weed control at 63 g/ha ([2]; 63 g ai/ha)?
**A.** 60%

**Q.** And the pest or weed control at 250 g/ha ([2]; 250 g ai/ha)?
**A.** 100%

**Q.** And the pest or weed control at 63 g/ha ([3]; 63 g ai/ha)?
**A.** 100%

**Q.** And the pest or weed control at 250 g/ha ([3]; 250 g ai/ha)?
**A.** 100%

**Q.** And the pest or weed control at 63 g/ha ([4]; 63 g ai/ha)?
**A.** 60%

**Q.** And the pest or weed control at 250 g/ha ([4]; 250 g ai/ha)?
**A.** 100%

**Q.** What about the pest or weed control at 63 g/ha ([5]; 63 g ai/ha) of the same compound?
**A.** 10%

**Q.** What about the pest or weed control at 250 g/ha ([5]; 250 g ai/ha) of the same compound?
**A.** 100%

**Q.** What about the pest or weed control at 63 g/ha ([6]; 63 g ai/ha) of the same compound?
**A.** 100%

**Q.** And the pest or weed control at 250 g/ha ([6]; 250 g ai/ha)?
**A.** 100%

**Q.** What about the pest or weed control at 63 g/ha ([7]; 63 g ai/ha) of the same compound?
**A.** 100%

**Q.** What about the pest or weed control at 250 g/ha ([7]; 250 g ai/ha) of the same compound?
**A.** 100%

**Q.** And the pest or weed control at 63 g/ha ([8]; 63 g ai/ha)?
**A.** 95%

**Q.** What about the pest or weed control at 250 g/ha ([8]; 250 g ai/ha) of the same compound?
**A.** 100%

**Q.** And the “phytotoxicity rating DIGSA” value ([9]; 63 g ai/ha)?
**A.** 0

**Q.** What about the “phytotoxicity rating DIGSA” value ([9]; 250 g ai/ha) of the same compound?
**A.** 0

**Q.** And the “phytotoxicity rating SORHA” value ([10]; 63 g ai/ha)?
**A.** 0

**Q.** What about the “phytotoxicity rating SORHA” value ([10]; 250 g ai/ha) of the same compound?
**A.** 20

**Q.** What about the “phytotoxicity rating CHEAL” value ([11]; 63 g ai/ha) of the same compound?
**A.** 60

**Q.** And the “phytotoxicity rating CHEAL” value ([11]; 250 g ai/ha)?
**A.** 98

**Q.** And the “phytotoxicity rating SETVI” value ([12]; 63 g ai/ha)?
**A.** 0

**Q.** And the “phytotoxicity rating SETVI” value ([12]; 250 g ai/ha)?
**A.** 10

**Q.** And the “phytotoxicity rating CASOB” value ([13]; 63 g ai/ha)?
**A.** 30

**Q.** What about the “phytotoxicity rating CASOB” value ([13]; 250 g ai/ha) of the same compound?
**A.** 50

**Q.** What about the pest or weed control at 63 g/ha ([14]; 63 g ai/ha) of the same compound?
**A.** 100%

**Q.** And the pest or weed control at 250 g/ha ([14]; 250 g ai/ha)?
**A.** 100%
